The values below come from patent US12252524B2, “GIP/GLP1 co-agonist compounds” (Eli Lilly and Company, priority 2018, dated 2025).

By Ki is commonly meant a dissociation constant, usually derived from enzyme kinetics or from competition with a known ligand. Usually EC50 stands for the midpoint of the concentration-response curve.

The target in test [1] is human GLP-1R (Homo sapiens, UniProt P43220). As to the kind of experiment: [125I]-GLP-1 binding (SPA), human GLP-1 receptor. Also noted: expressed in transfected cells; crude membranes. Particulars: read-out: hGLP1R Ki, (nM) (SEM, n). The method, boiled down:
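Crude-membrane binding assay; one membrane prep included 1 mM MgCl2 and 25 units/ml DNAse I during lysis. Assay buffer at pH 7.4 contains 0.1% (w/v) bacitracin and 0.003% (w/v) TWEEN-20. Ki is reported as geometric mean.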

Test [2] addresses T1, human Gcg receptor (Homo sapiens, UniProt P47871).
T1 construct: expressed in transfected cells; crude membranes
In words: [125I]-Glucagon binding (SPA), human Gcg receptor. Particulars: read-out: hGLcgR Ki, nM (SEM, n). The procedure, abridged:
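Crude membranes from cells expressing the receptor, prepared by hypotonic lysis in 50 mM Tris HCl pH 7.5 with protease inhibitors, homogenization and differential centrifugation, were used in a WGA-bead SPA. Binding buffer: 25 mM HEPES pH 7.4, 2.5 mM CaCl2, 1 mM MgCl2, bacitracin, Tween-20.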

Test [3] addresses human GLP-1 receptor (GLP-1R) (Homo sapiens, UniProt P43220). As to the kind of experiment: cAMP pharmacological functional assay in presence of casein, hGLP-1R. Type of test: cell-based. The conditions noted are these: HEK293 cells expressing hGLP-1R, 0.1% Casein, geometric mean; read-out: hGLP1R cAMP Rel EC50 nM (SEM, n).
Test [4] concerns the target T2, gastric inhibitory peptide receptor (GIPR) (Homo sapiens, UniProt P48546).
T2 sequence (P48546 22-466): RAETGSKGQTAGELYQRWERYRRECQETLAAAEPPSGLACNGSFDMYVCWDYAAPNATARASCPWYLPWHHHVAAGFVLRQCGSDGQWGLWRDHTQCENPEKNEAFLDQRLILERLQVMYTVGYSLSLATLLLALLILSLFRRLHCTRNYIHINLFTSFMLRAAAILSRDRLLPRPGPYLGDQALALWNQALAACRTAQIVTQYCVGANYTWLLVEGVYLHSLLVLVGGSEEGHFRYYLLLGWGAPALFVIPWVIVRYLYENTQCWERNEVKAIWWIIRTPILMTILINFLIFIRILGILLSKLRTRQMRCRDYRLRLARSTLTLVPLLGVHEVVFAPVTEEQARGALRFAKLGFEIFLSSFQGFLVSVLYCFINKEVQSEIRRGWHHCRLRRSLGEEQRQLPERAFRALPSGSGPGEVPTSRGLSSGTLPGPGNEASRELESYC
In words: cAMP pharmacological functional assay in presence of casein, hGIPR. Type of test: cell-based. The conditions noted are these: HEK293 cells expressing hGIPR, 0.1% Casein, geometric mean; read-out: hGIPR cAMP Rel EC50 nM (SEM, n).

For test [5], the target named is T3, human GIP receptor (Homo sapiens, UniProt P48546).
T3 construct: expressed in transfected cells; crude membranes
T3 sequence (P48546 22-466): T2 sequence (P48546 22-466)
As to the kind of experiment: [125I]-GIP binding (SPA), human GIP receptor. Particulars: read-out: hGIPR Ki, nM (SEM, n).

Numbered stars: 1 amine (or outer) side, 2 acyl side, 3 side chain; on linkers, the order of the positions; unused ones are H or OH. Square brackets hold non-standard residues; d marks the D form. Side chains are listed from the residue outwards. Peptide text beside a SMILES is read from it. * marks the point of attachment. C20 diacid = O=C(O)CCCCCCCCCCCCCCCCCCC(=O)*; C18 diacid = O=C(O)CCCCCCCCCCCCCCCCC(=O)*; αMePhe(2-F) = C[C@](N)(Cc1ccccc1F)C(=O)O; γGlu = O=C(O)[C@H](CCC(=O)[*:2])N[*:1]; αMeY = C[C@](N)(Cc1ccc(O)cc1)C(=O)O; αMeF = C[C@](N)(Cc1ccccc1)C(=O)O; αMeL = CC(C)C[C@](C)(N)C(=O)O; Dap = NC[C@H](N)C(=O)O; AEEA = NCCOCCOCC(=O)O; Aib = CC(C)(N)C(=O)O

T1 sequence (P47871 26-477): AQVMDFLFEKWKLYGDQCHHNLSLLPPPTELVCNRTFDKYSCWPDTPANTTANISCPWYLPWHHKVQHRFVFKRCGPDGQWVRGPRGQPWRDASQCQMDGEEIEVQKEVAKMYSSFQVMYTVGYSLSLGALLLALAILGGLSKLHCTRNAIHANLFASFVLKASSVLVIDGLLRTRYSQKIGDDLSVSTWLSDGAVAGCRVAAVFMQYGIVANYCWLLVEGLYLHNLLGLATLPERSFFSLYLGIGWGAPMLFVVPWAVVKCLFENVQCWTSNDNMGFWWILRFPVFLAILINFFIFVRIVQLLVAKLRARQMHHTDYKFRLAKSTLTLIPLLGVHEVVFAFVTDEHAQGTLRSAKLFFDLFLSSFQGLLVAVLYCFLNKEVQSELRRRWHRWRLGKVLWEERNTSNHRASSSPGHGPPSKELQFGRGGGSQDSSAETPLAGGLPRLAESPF
Sequence of human GLP-1 receptor (GLP-1R) (P43220 24-463): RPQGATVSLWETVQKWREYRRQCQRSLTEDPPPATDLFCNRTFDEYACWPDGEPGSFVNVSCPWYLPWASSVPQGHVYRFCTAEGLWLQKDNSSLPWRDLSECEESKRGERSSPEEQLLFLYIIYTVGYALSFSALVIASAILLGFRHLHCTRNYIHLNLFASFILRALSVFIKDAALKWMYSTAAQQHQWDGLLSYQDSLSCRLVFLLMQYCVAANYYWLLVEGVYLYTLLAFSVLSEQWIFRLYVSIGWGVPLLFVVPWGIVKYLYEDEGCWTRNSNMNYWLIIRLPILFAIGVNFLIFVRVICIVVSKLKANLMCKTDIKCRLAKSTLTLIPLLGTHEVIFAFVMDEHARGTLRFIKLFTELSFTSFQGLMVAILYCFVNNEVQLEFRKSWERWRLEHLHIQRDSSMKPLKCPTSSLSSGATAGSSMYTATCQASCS
Sequence of human GLP-1R (P43220 24-463): as above

On to `CC[C@H](C)[C@H](NC(=O)[C@H](CC(C)C)NC(=O)[C@H](Cc1ccc(O)cc1)NC(=O)C(C)(C)NC(=O)[C@@H](NC(=O)[C@H](Cc1ccccc1)NC(=O)[C@H](CCC(=O)O)NC(=O)C(C)(C)NC(=O)[C@H](CCC(N)=O)NC(=O)[C@H](C)NC(=O)[C@H](CCCCNC(=O)COCCOCCNC(=O)COCCOCCNC(=O)CC[C@H](NC(=O)CCCCCCCCCCCCCCCCCCC(=O)O)C(=O)O)NC(=O)[C@H](CCC(=O)O)NC(=O)[C@H](CC(=O)O)NC(=O)[C@H](CC(C)C)NC(=O)[C@](C)(CC(C)C)NC(=O)[C@@H](NC(=O)[C@H](CO)NC(=O)[C@H](Cc1ccc(O)cc1)NC(=O)[C@H](CC(=O)O)NC(=O)[C@H](CO)NC(=O)[C@@H](NC(=O)[C@](C)(Cc1ccccc1F)NC(=O)[C@@H](NC(=O)CNC(=O)[C@H](CCC(=O)O)NC(=O)C(C)(C)NC(=O)[C@@H](N)Cc1ccc(O)cc1)[C@@H](C)O)[C@@H](C)O)[C@@H](C)CC)[C@@H](C)CC)C(=O)N[C@@H](CCC(=O)O)C(=O)NCC(=O)NCC(=O)N1CCC[C@H]1C(=O)N[C@@H](CO)C(=O)N[C@@H](CO)C(=O)NCC(=O)N[C@@H](C)C(=O)N1CCC[C@H]1C(=O)N1CCC[C@H]1C(=O)N1CCC[C@H]1C(=O)N[C@@H](CO)C(N)=O` [Example 152] (H-Y[Aib]EGT[αMePhe(2-F)]TSDYSI[αMeL]LDEK([AEEA-AEEA-γGlu-C20 diacid])AQ[Aib]EFI[Aib]YLIEGGPSSGAPPPS-NH2), for which the inhibition constant Ki in test [1] is 48 nM; in test [2], 93.4 nM; in test [5], 0.117 nM. Also, the concentration for a half-maximal effect (EC50) in test [3] was determined as 0.0915 nM; in test [4], 0.0504 nM.

In the case of `CC[C@H](C)[C@H](NC(=O)[C@H](CC(C)C)NC(=O)[C@H](Cc1ccc(O)cc1)NC(=O)[C@H](CCC(=O)O)NC(=O)[C@@H](NC(=O)[C@H](Cc1ccccc1)NC(=O)[C@H](C)NC(=O)C(C)(C)NC(=O)[C@H](CCC(N)=O)NC(=O)[C@H](C)NC(=O)[C@H](CCCCNC(=O)COCCOCCNC(=O)COCCOCCNC(=O)CC[C@H](NC(=O)CCCCCCCCCCCCCCCCCCC(=O)O)C(=O)O)NC(=O)[C@H](CCCCN)NC(=O)[C@H](CC(=O)O)NC(=O)[C@H](CC(C)C)NC(=O)[C@H](CC(C)C)NC(=O)[C@@H](NC(=O)[C@H](CO)NC(=O)[C@H](Cc1ccc(O)cc1)NC(=O)[C@H](CC(=O)O)NC(=O)[C@H](CO)NC(=O)[C@@H](NC(=O)[C@H](Cc1ccccc1)NC(=O)[C@@H](NC(=O)CNC(=O)[C@H](CCC(=O)O)NC(=O)C(C)(C)NC(=O)[C@@H](N)Cc1ccc(O)cc1)[C@@H](C)O)[C@@H](C)O)[C@@H](C)CC)[C@@H](C)CC)C(=O)N[C@@H](CCC(=O)O)C(=O)NCC(=O)NCC(=O)N1CCC[C@H]1C(=O)N[C@@H](CO)C(=O)N[C@@H](CO)C(=O)NCC(=O)N[C@@H](C)C(=O)N1CCC[C@H]1C(=O)N1CCC[C@H]1C(=O)N1CCC[C@H]1C(=O)N[C@@H](CO)C(N)=O` [Example 8], the values for the inhibition constant Ki in test [1], in test [2] and in test [5] were 2.84 nM, 206 nM and 0.0772 nM, respectively. Also, the 50% effective concentration (EC50) in test [3] was found to be 0.148 nM; in test [4], 0.0848 nM.

With `CC[C@H](C)[C@H](NC(=O)[C@H](CC(C)C)NC(=O)[C@H](Cc1ccc(O)cc1)NC(=O)[C@@H](CCC(=O)O)NC(=O)[C@@H](NC(=O)[C@H](Cc1ccccc1)NC(=O)[C@H](CCC(=O)O)NC(=O)C(C)(C)NC(=O)[C@H](CCC(N)=O)NC(=O)[C@H](C)NC(=O)[C@H](CCCCNC(=O)COCCOCCNC(=O)COCCOCCNC(=O)CC[C@H](NC(=O)CCCCCCCCCCCCCCCCC(=O)O)C(=O)O)NC(=O)[C@H](CN)NC(=O)[C@H](CC(=O)O)NC(=O)[C@H](CC(C)C)NC(=O)[C@](C)(CC(C)C)NC(=O)[C@@H](NC(=O)[C@H](CO)NC(=O)[C@H](Cc1ccc(O)cc1)NC(=O)[C@H](CC(=O)O)NC(=O)[C@H](CO)NC(=O)[C@@H](NC(=O)[C@](C)(Cc1ccccc1F)NC(=O)[C@@H](NC(=O)CNC(=O)[C@H](CCC(=O)O)NC(=O)C(C)(C)NC(=O)[C@@H](N)Cc1ccc(O)cc1)[C@@H](C)O)[C@@H](C)O)[C@@H](C)CC)[C@@H](C)CC)C(=O)N[C@@H](CCC(=O)O)C(=O)NCC(=O)NCC(=O)N1CCC[C@H]1C(=O)N[C@@H](CO)C(=O)N[C@@H](CO)C(=O)NCC(=O)N[C@@H](C)C(=O)N1CCC[C@H]1C(=O)N1CCC[C@H]1C(=O)N1CCC[C@H]1C(=O)N[C@@H](CO)C(N)=O` [Example 210] (H-Y[Aib]EGT[αMePhe(2-F)]TSDYSI[αMeL]LD[Dap]K([AEEA-AEEA-γGlu-C18 diacid])AQ[Aib]EFI[dE]YLIEGGPSSGAPPPS-NH2), the inhibitory constant (Ki) in test [1] is 1.58 nM; in test [2], over 1010 nM; in test [5] it was 0.0399 nM. The concentration giving a half-maximal response (EC50) was determined as 0.0432 nM in test [3] and 0.0383 nM in test [4].

`CC[C@H](C)[C@H](NC(=O)[C@H](CC(C)C)NC(=O)[C@](C)(Cc1ccc(O)cc1)NC(=O)[C@H](CCC(=O)O)NC(=O)[C@@H](NC(=O)[C@H](Cc1ccccc1)NC(=O)[C@H](CCC(=O)O)NC(=O)C(C)(C)NC(=O)[C@H](CCC(N)=O)NC(=O)[C@H](C)NC(=O)[C@H](CCCCNC(=O)COCCOCCNC(=O)COCCOCCNC(=O)CC[C@H](NC(=O)CCCCCCCCCCCCCCCCCCC(=O)O)C(=O)O)NC(=O)[C@H](CCC(=O)O)NC(=O)[C@H](CC(=O)O)NC(=O)[C@H](CC(C)C)NC(=O)[C@](C)(CC(C)C)NC(=O)[C@@H](NC(=O)[C@H](CO)NC(=O)[C@H](Cc1ccc(O)cc1)NC(=O)[C@H](CC(=O)O)NC(=O)[C@H](CO)NC(=O)[C@@H](NC(=O)[C@](C)(Cc1ccccc1F)NC(=O)[C@@H](NC(=O)CNC(=O)[C@H](CCC(=O)O)NC(=O)C(C)(C)NC(=O)[C@@H](N)Cc1ccc(O)cc1)[C@@H](C)O)[C@@H](C)O)[C@@H](C)CC)[C@@H](C)CC)C(=O)N[C@@H](CCC(=O)O)C(=O)NCC(=O)NCC(=O)N1CCC[C@H]1C(=O)N[C@@H](CO)C(=O)N[C@@H](CO)C(=O)NCC(=O)N[C@@H](C)C(=O)N1CCC[C@H]1C(=O)N1CCC[C@H]1C(=O)N1CCC[C@H]1C(=O)N[C@@H](CO)C(N)=O` [Example 223] (H-Y[Aib]EGT[αMePhe(2-F)]TSDYSI[αMeL]LDEK([AEEA-AEEA-γGlu-C20 diacid])AQ[Aib]EFIE[αMeY]LIEGGPSSGAPPPS-NH2): the Ki in test [1] turned out to be 5.62 nM; in test [2], 46.5 nM; in test [5], 0.0921 nM. For the same compound, the concentration giving a half-maximal response (EC50) in test [3] worked out at 0.0363 nM; in test [4], 0.067 nM.

For the compound `CC[C@H](C)[C@H](NC(=O)[C@H](CC(C)C)NC(=O)[C@H](Cc1ccc(O)cc1)NC(=O)[C@H](CCC(=O)O)NC(=O)[C@@H](NC(=O)[C@H](Cc1ccccc1)NC(=O)[C@H](C)NC(=O)C(C)(C)NC(=O)[C@H](CCC(N)=O)NC(=O)[C@H](C)NC(=O)[C@H](CCCCNC(=O)COCCOCCNC(=O)COCCOCCNC(=O)CC[C@H](NC(=O)CCCCCCCCCCCCCCCCCCC(=O)O)C(=O)O)NC(=O)[C@H](CCC(=O)O)NC(=O)[C@H](CC(=O)O)NC(=O)[C@H](CC(C)C)NC(=O)C(C)(C)NC(=O)[C@@H](NC(=O)[C@H](CO)NC(=O)[C@H](Cc1ccc(O)cc1)NC(=O)[C@H](CC(=O)O)NC(=O)[C@H](CO)NC(=O)[C@@H](NC(=O)[C@](C)(Cc1ccccc1)NC(=O)[C@@H](NC(=O)CNC(=O)[C@H](CCC(=O)O)NC(=O)C(C)(C)NC(=O)[C@@H](N)Cc1ccc(O)cc1)[C@@H](C)O)[C@@H](C)O)[C@@H](C)CC)[C@@H](C)CC)C(=O)N[C@@H](CCC(=O)O)C(=O)NCC(=O)NCC(=O)N1CCC[C@H]1C(=O)N[C@@H](CO)C(=O)N[C@@H](CO)C(=O)NCC(=O)N[C@@H](C)C(=O)N1CCC[C@H]1C(=O)N1CCC[C@H]1C(=O)N1CCC[C@H]1C(=O)N[C@@H](CO)C(N)=O` [Example 117] (H-Y[Aib]EGT[αMeF]TSDYSI[Aib]LDEK([AEEA-AEEA-γGlu-C20 diacid])AQ[Aib]AFIEYLIEGGPSSGAPPPS-NH2), the Ki in test [1] was determined as 6.96 nM; in test [2], 192 nM; in test [5], 0.0497 nM. For the same compound, the EC50 was determined as 0.0615 nM in test [3] and 0.0648 nM in test [4].
